Tested on: GTL16 (human stomach carcinoma)
Test: Tumor growth model for treated subjects, GTL16 inoculated subcutaneously in athymic nude mice (Experiment-A)
Format: in vivo
Description: The cell line GTL16 (human stomach carcinoma) was inoculated subcutaneously on the back of 44 athymic nude male mice, initially weighing 17.9-28.1 g.
The dimensions of the tumor can be taken applying different types of measurements broadly classifiable as measurements of linear dimensions, of volume (or mass) and cell number. For tumors that maintain more or less a spherical morphology, as in the case of solid tumors, the measurement of the three principal diameters results the most adequate, as well as the most practiced solution. Nevertheless, in the case of subcutaneous tumors, the tumor can be considered of spherical shape only during the initial phase of growth; in the following phases, the dimension perpendicular to the skin is generally much smaller than the percutaneous dimensions, conferring to the mass a plaque-like shape or an hemi-ellipsoidal shape. In the experiments taken into consideration, only the dimensions of the two percutaneous diameters were directly measured with vernier calipers. The third dimension was not directly measured, because of the limited accessibility (which would have required a greater invasiveness), in the assumption that two measures were anyhow sufficient to guarantee a good approximation of the tumor mass (K. Rygaard and M. Spang-Thomsen, “Quantitation and Gompertzian analysis of tumor growth”. Breast Cancer Research and Treatment, 46: 303-312,1997).
The volume of a tumor can be indirectly calculated by applying the following empirical formula: [formula] where DMIN and DMAX denote, respectively, the smallest and the largest percutaneous diameter. Such empirical formula hypothesizes that the neoplasia has an ellipsoidal shape (D. A. Cameron, W. M. Gregory, A. Bowman, E. D. C. Anderson, P. Levack, P. Forouhi and R. F. C. Leonard, “Identification of long-term survivors in primary breast cancer by dynamic modeling of tumour response”. British Journal of Cancer, 83(1): 98-103, 2000, Hammond, L. A.; Hilsenbeck, S. G.; Eckhardt, S. G.; Marty, J; Mangold, G.; MacDonald, G. R.; Rowinsky, E. K.; Von Hoff, D. D; Weitman S. Enhanced antitumour activity of 6-hydroxymethylacylfulvene in combination with topotecan or paclitaxel in the MV522 lung carcinoma xenograft model. European Journal of Cancer 2000, 36, 2430-2436) obtained by the rotation of a hemi-ellipsoid (with DMIN and DMAX as axes of the percutaneous plane) around its largest axe. Assuming δ as a constant density equal to δ=10^−3g/mm^3, the empirical expression for the mass of the neoplasia results to be: [formula] The Measurement Error Model
As it regards the model of tumor growth, the error model above introduced is instead known. For the observed measurements of a generic quantity y (for instance the weight of the tumor), the constant coefficient of variation error model (3.5 and 3.6) asserts that the standard deviation of the error varies linearly with the dimension the measured quantity. With an error model of this kind, the technique of the weighed least squares (Weighed Least Squares, WLS), described in M. E. Dagna, “Identificazione di modelli farmacocinetici di popolazione”; Università degli Studi di Pavia 1999, herein incorporated as far as the WLS technique is concerned, is more adequate.

[1] = mean of the twelve treated mice (20, 30, 40 mg/kg q4dx3)
[2] = mouse 0, 20 mg/kg iv-bolus q4dx3
[3] = mouse 26, 40 mg/kg iv-bolus q4dx3
[4] = mouse 28, 30 mg/kg iv-bolus q4dx3
[5] = mouse 31, 20 mg/kg iv-bolus q4dx3
[6] = mouse 55, 20 mg/kg iv-bolus q4dx3
[7] = mouse 59, 30 mg/kg iv-bolus q4dx3
[8] = mouse 64, 30 mg/kg iv-bolus q4dx3
[9] = mouse 69, 20 mg/kg iv-bolus q4dx3
[10] = mouse 78, 40 mg/kg iv-bolus q4dx3
[11] = mouse 80, 40 mg/kg iv-bolus q4dx3
[12] = mouse 81, 40 mg/kg iv-bolus q4dx3
[13] = mouse 88, 30 mg/kg iv-bolus q4dx3
[14] = treated mouse 0, 20 mg/kg iv-bolus q4dx3
[15] = treated mouse 26, 40 mg/kg iv-bolus q4dx3
[16] = treated mouse 28, 30 mg/kg iv-bolus q4dx3
[17] = treated mouse 31, 20 mg/kg iv-bolus q4dx3
[18] = treated mouse 55, 20 mg/kg iv-bolus q4dx3
[19] = treated mouse 59, 30 mg/kg iv-bolus q4dx3
[20] = treated mouse 64, 30 mg/kg iv-bolus q4dx3
[21] = treated mouse 69, 20 mg/kg iv-bolus q4dx3
[22] = treated mouse 78, 40 mg/kg iv-bolus q4dx3
[23] = treated mouse 80, 40 mg/kg iv-bolus q4dx3
[24] = treated mouse 81, 40 mg/kg iv-bolus q4dx3
[25] = treated mouse 88, 30 mg/kg iv-bolus q4dx3

## CC(=O)O[C@H]1C(=O)[C@@]2(C)[C@H]([C@H](OC(=O)c3ccccc3)[C@]3(O)C[C@H](OC(=O)[C@H](O)[C@@H](NC(=O)c4ccccc4)c4ccccc4)C(C)=C1C3(C)C)[C@]1(OC(C)=O)CO[C@@H]1C[C@@H]2O [Drug-A, paclitaxel]
[1]
  K1, mean: 0.1879 day⁻¹
  K2, mean: 0.002921 mL/g/day
  λ0, mean: 0.2467
  λ1, mean: 0.1274
[2]
  K1 (index of the tumor cells death rate): 0.2057 day⁻¹
  K2 (index of the potency of the compound): 0.01878 mL/g/day
[3]
  K1 (index of the tumor cells death rate): 0.1658 day⁻¹
  K2 (index of the potency of the compound): 0.00315 mL/g/day
[4]
  K1 (index of the tumor cells death rate): 0.1406 day⁻¹
  K2 (index of the potency of the compound): 0.000759 mL/g/day
[5]
  K1 (index of the tumor cells death rate): 0.2683 day⁻¹
  K2 (index of the potency of the compound): 0.003356 mL/g/day
[6]
  K1 (index of the tumor cells death rate): 0.2424 day⁻¹
  K2 (index of the potency of the compound): 0.002721 mL/g/day
[7]
  K1 (index of the tumor cells death rate): 0.192 day⁻¹
  K2 (index of the potency of the compound): 0.000563 mL/g/day
[8]
  K1 (index of the tumor cells death rate): 0.1646 day⁻¹
  K2 (index of the potency of the compound): 0.001085 mL/g/day
[9]
  K1 (index of the tumor cells death rate): 0.1515 day⁻¹
  K2 (index of the potency of the compound): 0.001361 mL/g/day
[10]
  K1 (index of the tumor cells death rate): 0.2056 day⁻¹
  K2 (index of the potency of the compound): 0.001507 mL/g/day
[11]
  K1 (index of the tumor cells death rate): 0.209 day⁻¹
  K2 (index of the potency of the compound): 0.000178 mL/g/day
[12]
  K1 (index of the tumor cells death rate): 0.2206 day⁻¹
  K2 (index of the potency of the compound): 0.000314 mL/g/day
[13]
  K1 (index of the tumor cells death rate): 0.08819 day⁻¹
  K2 (index of the potency of the compound): 0.001276 mL/g/day
[14]
  LAMBDA0 (production rate of tumor cells, exponential phase): 0.2601
  LAMBDA1 (tumor cells mass produced in the time unit, linear phase): 0.1563
[15]
  LAMBDA0 (production rate of tumor cells, exponential phase): 0.2087
  LAMBDA1 (tumor cells mass produced in the time unit, linear phase): 0.1678
[16]
  LAMBDA0 (production rate of tumor cells, exponential phase): 0.2396
  LAMBDA1 (tumor cells mass produced in the time unit, linear phase): 0.16
[17]
  LAMBDA0 (production rate of tumor cells, exponential phase): 0.2726
  LAMBDA1 (tumor cells mass produced in the time unit, linear phase): 0.08095
[18]
  LAMBDA0 (production rate of tumor cells, exponential phase): 0.2377
  LAMBDA1 (tumor cells mass produced in the time unit, linear phase): 0.07223
[19]
  LAMBDA0 (production rate of tumor cells, exponential phase): 0.2458
  LAMBDA1 (tumor cells mass produced in the time unit, linear phase): 0.07275
[20]
  λ0 (production rate of tumor cells, exponential phase): 0.2565
  λ1 (tumor cells mass produced in the time unit, linear phase): 0.18
[21]
  λ0 (production rate of tumor cells, exponential phase): 0.2464
  λ1 (tumor cells mass produced in the time unit, linear phase): 0.1782
[22]
  λ0 (production rate of tumor cells, exponential phase): 0.2438
  λ1 (tumor cells mass produced in the time unit, linear phase): 0.1276
[23]
  λ0 (production rate of tumor cells, exponential phase): 0.234
  λ1 (tumor cells mass produced in the time unit, linear phase): 0.05985
[24]
  λ0 (production rate of tumor cells, exponential phase): 0.2723
  λ1 (tumor cells mass produced in the time unit, linear phase): 0.0685
[25]
  λ0 (production rate of tumor cells, exponential phase): 0.2431
  λ1 (tumor cells mass produced in the time unit, linear phase): 0.2049
